Read-outs that look alike come from different tables or passages of the source.
Key:
[1] = system: 6 Hz-induced psychomotor seizures; assay: 6 Hz psychomotor seizure induction mouse model; type: in vivo
Description: To examine the acute effect of PDE4 inhibition on seizures, the 6 Hz psychomotor model that represents therapy-resistant limbic seizures was employed (White et al., 1995; Barton et al., 2001). Briefly, compounds were screened for their ability to block psychomotor seizures induced by a low-frequency (6 Hz), long-duration (3 sec) stimulus delivered through corneal electrodes. These seizures are believed to model partial seizures observed in humans. […]

scn1lab mutant zebrafish [2] = assay: Electrophysiological recording of seizure-like hyperexcitability in the tectum opticum of scn1lab zebrafish; type: in vivo
Description: Briefly, 6 dpf zebrafish (WT and scn1lab mutants) were paralyzed (α-bungarotoxin, 1 mg/ml, Tocris) and embedded in agarose. The dorsal side of the zebrafish was exposed to the agarose gel surface and a glass microelectrode was placed into the tectum opticum of zebrafish and electrophysiological measurements were recorded. […] Care was taken not to disrupt the pipette or move the fish in any manner. Seizure-like activity was defined by high-frequency, large amplitude spikes, as defined elsewhere (Baraban et al, 2013). Both itcal (>1000 ms in duration) and inter-ictal (<300 ms in duration) activity was observed upon zooming in on a section of the EEG trace (data not shown), consistent with epileptiform events.

scn1lab mutant zebrafish [3] = type: in vivo; settings: for OCR response / bioenergetics relative to WT baseline: 40 μM dose of PDE4 inhibitor
Description: The scn1lab mutant zebrafish employed in this Experimental section are homozygous, loss-of-function mutants. To measure bioenergetics in whole, living zebrafish (further details of which may be found in Ibhazehiebo et al. (2018) Brain 141(3):744-761), zebrafish larvae (5 days post-fertilization, dpf) were seeded into 24-well islet capture microplates (Agilent) and pre-exposed to vehicle or drug for 20 minutes prior to the start of the assay. Oxygen consumption rates (OCR) were measured using the Seahorse Bioanalyzer (Agilent).
In a similar assay to that described above, scn1lab mutants are exposed to a 40 μM dose of a range of PDE4 inhibitors. […]

Scn1a mutant mice = assay: Hyperthermia-induced seizures in Scn1a mutant mice; type: in vivo, mouse; settings: for block of seizures (partial = seizure temperature changed; full = no seizure elicited): FIG. 15 comparison, pre-treatment with PDE4 inhibitor
Description: As shown in FIG. 13 (panels A and B), an example PDE4 inhibitor (AN2728) protects against hyperthermia-induced seizures in Scn1a mutant mice. In this model, a Scn1a mutant animal's core temperature is raised using an external heat source and consequently, brain temperature is raised and this leads to hyperthermic seizures. These hyperthermic seizures are thought to represent febrile seizures. In the Scn1a mutants, seizures begin around 41° C., whereas in the WT seizures are rarely detected even at temperatures as high as 43° C. […] FIG. 12B is the same data graphed differently.
A partial block in seizures is noted when the temperature required to induce a seizure is statistically different than wildtype and a full block in seizures occurs when no seizure is elicited following pre-treatment with the PDE4 inhibitor.

[4] = system: mouse Scn1a mutant brain ex vivo slices; assay: Extracellular field recordings in mouse Scn1a mutant brain ex vivo slices; settings: AN2728, 40 μM; adult Scn1a heterozygous mutant brain slices; n=3
Description: The mouse Scn1a mutants employed in this Experimental section were heterozygous mutants (Scn1a−/− mice die early postnatally). […] In this assay, adult Scn1a mutant brains were rapidly removed and sectioned for electrophysiological assays. Here, extracellular field recordings were conducted to measure baseline electrophysiological activity, prior to the addition of PDE4 inhibitor (AN2728, 40 μM). A decrease in hyperexcitable amplitude and frequency was measured in the presence of AN2728.

[5] = system: Dravet syndrome (DS) patients; settings: cited from earlier work
kcna1 mutant zebrafish = assay: Bioenergetics in kcna1 mutant zebrafish (model of generalizable epilepsy and SUDEP); type: in vivo
[6] = after treatment with AN2728, n=6-10

N#Cc1ccc(Oc2ccc3c(c2)COB3O)cc1 [AN2728, 5-(4-cyanophenoxy)-2,3-dihydro-1-hydroxy-2,1-benzoxaborole]
animals that responded (protected) in 6 Hz test ([1]; dosed 30 min prior to the 6 Hz test, highest dose 300 mg/kg): 1 | animals that responded (protected) in 6 Hz test ([1]; treated two hours prior to the 6 Hz test): three out of four | seizure-like activity (scn1lab mutant zebrafish [2]; AN2728, 40 μM, 6 dpf scn1lab mutants): blocked this seizure-like activity to baseline levels | peak amplitude (scn1lab mutant zebrafish [2]; [6]): decrease | seizure frequency (scn1lab mutant zebrafish [2]; [6]): decrease | OCR response relative to WT (scn1lab mutant zebrafish [3]; AN2728 1 nM-100 nM doses, 5 dpf larvae): ineffective | OCR response relative to WT (scn1lab mutant zebrafish [3]; AN2728 1 μM, 5 dpf larvae): fully restoring OCR response to WT levels | OCR response relative to WT (scn1lab mutant zebrafish [3]; AN2728 10 μM, 5 dpf larvae): fully restoring OCR response to WT levels | toxicity (drop of OCR response below mutant levels) (scn1lab mutant zebrafish [3]; AN2728 100 μM, 5 dpf larvae): toxic | restoration of bioenergetics (OCR) (scn1lab mutant zebrafish [3]; AN2728 dose series 1 nM-100 μM, 5 dpf larvae, 20 min pre-exposure): dose-dependent restoration of bioenergetics | animals that do not ever experience a seizure (Scn1a mutant mice; AN2728 treatment): 3 | protection against hyperthermia-induced seizures (Scn1a mutant mice; AN2728 treatment): protected against hyperthermia-induced seizures | temperature at which the remaining animals experience a seizure (Scn1a mutant mice; AN2728 treatment, untreated mutants seize around 41° C.): ~42 °C | block of seizures (partial = seizure temperature changed; full = no seizure elicited) (Scn1a mutant mice): partially or fully block seizures | hyperexcitable amplitude [4]: decrease | hyperexcitable frequency [4]: decrease

C=C(C)[C@@H]1CCC(C)=C[C@H]1c1c(O)cc(CCCCC)cc1O [CBD, cannabidiol]
patients achieving full seizure freedom [5]: < 5% | patients with reduced seizure frequency [5]: 43%

COc1ccc([C@]2(C#N)CC[C@@H](C(=O)O)CC2)cc1OC1CCCC1 [Cilomilast, cilomilast]
OCR response / bioenergetics relative to WT baseline (scn1lab mutant zebrafish [3]): restored OCR response to baseline levels

CCOc1ccc(/C=C2\NCCc3cc(OCC)c(OCC)cc32)cc1OCC [Drotaverine, drotaverine]
OCR response / bioenergetics relative to WT baseline (scn1lab mutant zebrafish [3]): effective in restoring bioenergetics to baseline levels

Nc1nc(N)nc(-c2cc(Cl)ccc2Cl)n1 [Irsogladine, irsogladine]
OCR response / bioenergetics relative to WT baseline (scn1lab mutant zebrafish [3]): effective in restoring bioenergetics to baseline levels

O=C(Nc1c(Cl)cncc1Cl)c1ccc(OC(F)F)c(OCC2CC2)c1 [Roflumilast, roflumilast]
OCR response / bioenergetics relative to WT baseline (scn1lab mutant zebrafish [3]): restored OCR response to baseline levels | block of seizures (partial = seizure temperature changed; full = no seizure elicited) (Scn1a mutant mice): partially or fully block seizures | bioenergetics relative to wild-type baseline (kcna1 mutant zebrafish): restore bioenergetics in a kcna1 mutant zebrafish back to baseline levels

COc1ccc(C2CNC(=O)C2)cc1OC1CCCC1 (stereo not drawn) [Rolipram, rolipram]
block of seizures (partial = seizure temperature changed; full = no seizure elicited) (Scn1a mutant mice): partially or fully block seizures | protection against hyperthermia-induced seizures (Scn1a mutant mice; rolipram, 3 mg/kg): neuroprotective against hyperthermia-induced seizures | temperature required to induce a seizure (Scn1a mutant mice; rolipram, 3 mg/kg): raising | severity of the seizure, Racine scale level (Scn1a mutant mice; rolipram, 3 mg/kg, from mostly 4-5 level without treatment): 3

Cn1c(=O)c2[nH]cnc2n(C)c1=O [Theophylline, theophylline]
OCR response / bioenergetics relative to WT baseline (scn1lab mutant zebrafish [3]): effective in restoring bioenergetics to baseline levels | bioenergetics relative to wild-type baseline (kcna1 mutant zebrafish): restore bioenergetics in a kcna1 mutant zebrafish back to baseline levels
